Data taken from patent US20110288086A1, “POLYCYCLIC QUINAZOLINES, PREPARATION THEREOF, AND USE THEREOF” (priority 2010, published 2011).
Values after ≈ are worked out from the molar mass of the structure shown.

How the values were obtained:
aurora kinase B = target: T1, aurora kinase B (Homo sapiens, UniProt Q96GD4); experiment: Aurora kinase B inhibition in vitro (Invitrogen aurora kinase screening kit PV3174); format: biochemical
T1 construct: purchased Invitrogen PV3174

[1] = test system: PANC-1 human pancreatic cancer cells; experiment: Tumor cell IC50, CCK-8 kit, PANC-1; format: cell-based; settings: PANC-1 cells
[2] = test system: PC-3 human carcinoma of prostate; experiment: Tumor cell inhibition ratio, CCK-8 kit, PC-3; settings: read-out: Antiproliferative effect (inhibition ratio) PC-3
Description: (§1) The inhibitory activities of the compounds on tumor cells in vitro

[3] = test system: A549 human lung cancer cells; experiment: Tumor cell inhibition ratio, CCK-8 kit, A549; settings: A549, read-out: Antiproliferative effect (inhibition ratio) A549
Description: as §1

[4] = test system: Colo320 human rectal cancer cells; experiment: Tumor cell inhibition ratio, CCK-8 kit, Colo320; settings: COLO 320, read-out: Antiproliferative effect (inhibition ratio) Colo320
Description: as §1

[5] = test system: Jurkat E6-1 human T-cell lymphoma; experiment: Tumor cell IC50, CCK-8 kit, Jurkat E6-1; format: cell-based; settings: E6-1 cells
[6] = test system: Hut78 T-Lymphocytic Leukemia cells; experiment: Tumor cell inhibition ratio, CCK-8 kit, Hut78; settings: Homo sapiens, HuT78, read-out: Antiproliferative effect (inhibition ratio) Hut-78
Description: as §1

[7] = test system: Colo320 human rectal cancer cells; experiment: Tumor cell IC50, CCK-8 kit, Colo320; format: cell-based; settings: COLO 320
[8] = test system: K562 human chronicity marrow leukemic cells; experiment: Tumor cell IC50, CCK-8 kit, K562; format: cell-based
[9] = test system: Hut78 T-Lymphocytic Leukemia cells; experiment: Tumor cell IC50, CCK-8 kit, Hut78; format: cell-based; settings: Homo sapiens, Hut-78 cells
[10] = test system: MDA-MB-435s human breast carcinoma cells; experiment: Tumor cell inhibition ratio, CCK-8 kit, MDA-MB-435s; settings: read-out: Antiproliferative effect (inhibition ratio) 435s
Description: as §1

Acute Toxicity Study = settings: in vivo; preliminary screening, Bliss statistical method
Experimental: The acute toxicity experiments were carried out according to the methods disclosed in the book of Modern Pharmacological Methods, edited chiefly by Zhang Jun-Tian.

[11] = test system: PANC-1 human pancreatic cancer cells; experiment: Tumor cell inhibition ratio, CCK-8 kit, PANC-1; settings: PANC-1, read-out: Antiproliferative effect (inhibition ratio) PANC-1
Description: as §1

[12] = test system: Jurkat E6-1 human T-cell lymphoma; experiment: Tumor cell inhibition ratio, CCK-8 kit, Jurkat E6-1; settings: Jurkat E6.1, read-out: Antiproliferative effect (inhibition ratio) E6-1
Description: as §1

[13] = test system: K562 human chronicity marrow leukemic cells; experiment: Tumor cell inhibition ratio, CCK-8 kit, K562; settings: K562, read-out: Antiproliferative effect (inhibition ratio) K562
Description: as §1

[14] = test system: PC-3 human carcinoma of prostate; experiment: Tumor cell IC50, CCK-8 kit, PC-3; format: cell-based; settings: PC-3 cells
EGFR tyrosine kinase = EGFR tyrosine kinase (Homo sapiens, UniProt P00533); experiment: EGFR tyrosine kinase inhibition in vitro (Invitrogen EGFR inhibitor screening kit PV3193)
Description: The inhibitory activities of EGFR tyrosine kinase in vitro
Erlotinib hydrochloride was used as a positive control drug.

[15] = test system: A549 human lung cancer cells; experiment: Tumor cell IC50, CCK-8 kit, A549; format: cell-based
[16] = test system: Hep3B2. 1-7 human hepatoma carcinoma cells; experiment: Tumor cell IC50, CCK-8 kit, Hep3B; format: cell-based
[17] = test system: Hep3B2.1-7 human hepatoma carcinoma cells; experiment: Tumor cell inhibition ratio, CCK-8 kit, Hep3B; settings: read-out: Antiproliferative effect (inhibition ratio) Hep3B
Description: as §1

[18] = test system: MDA-MB-435s human breast carcinoma cells; experiment: Tumor cell IC50, CCK-8 kit, MDA-MB-435s; format: cell-based; settings: 435s cells

T1 sequence (Q96GD4 whole entry): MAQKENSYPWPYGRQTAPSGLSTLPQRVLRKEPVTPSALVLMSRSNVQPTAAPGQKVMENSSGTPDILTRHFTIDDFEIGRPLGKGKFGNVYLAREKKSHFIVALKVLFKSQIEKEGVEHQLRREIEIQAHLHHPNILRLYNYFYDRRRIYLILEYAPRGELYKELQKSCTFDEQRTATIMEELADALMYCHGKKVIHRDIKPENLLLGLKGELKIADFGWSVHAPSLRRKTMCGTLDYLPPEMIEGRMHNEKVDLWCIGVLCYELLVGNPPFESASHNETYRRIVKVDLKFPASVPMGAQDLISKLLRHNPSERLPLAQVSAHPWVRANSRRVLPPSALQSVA
EGFR tyrosine kinase, sequence (P00533 25-1210): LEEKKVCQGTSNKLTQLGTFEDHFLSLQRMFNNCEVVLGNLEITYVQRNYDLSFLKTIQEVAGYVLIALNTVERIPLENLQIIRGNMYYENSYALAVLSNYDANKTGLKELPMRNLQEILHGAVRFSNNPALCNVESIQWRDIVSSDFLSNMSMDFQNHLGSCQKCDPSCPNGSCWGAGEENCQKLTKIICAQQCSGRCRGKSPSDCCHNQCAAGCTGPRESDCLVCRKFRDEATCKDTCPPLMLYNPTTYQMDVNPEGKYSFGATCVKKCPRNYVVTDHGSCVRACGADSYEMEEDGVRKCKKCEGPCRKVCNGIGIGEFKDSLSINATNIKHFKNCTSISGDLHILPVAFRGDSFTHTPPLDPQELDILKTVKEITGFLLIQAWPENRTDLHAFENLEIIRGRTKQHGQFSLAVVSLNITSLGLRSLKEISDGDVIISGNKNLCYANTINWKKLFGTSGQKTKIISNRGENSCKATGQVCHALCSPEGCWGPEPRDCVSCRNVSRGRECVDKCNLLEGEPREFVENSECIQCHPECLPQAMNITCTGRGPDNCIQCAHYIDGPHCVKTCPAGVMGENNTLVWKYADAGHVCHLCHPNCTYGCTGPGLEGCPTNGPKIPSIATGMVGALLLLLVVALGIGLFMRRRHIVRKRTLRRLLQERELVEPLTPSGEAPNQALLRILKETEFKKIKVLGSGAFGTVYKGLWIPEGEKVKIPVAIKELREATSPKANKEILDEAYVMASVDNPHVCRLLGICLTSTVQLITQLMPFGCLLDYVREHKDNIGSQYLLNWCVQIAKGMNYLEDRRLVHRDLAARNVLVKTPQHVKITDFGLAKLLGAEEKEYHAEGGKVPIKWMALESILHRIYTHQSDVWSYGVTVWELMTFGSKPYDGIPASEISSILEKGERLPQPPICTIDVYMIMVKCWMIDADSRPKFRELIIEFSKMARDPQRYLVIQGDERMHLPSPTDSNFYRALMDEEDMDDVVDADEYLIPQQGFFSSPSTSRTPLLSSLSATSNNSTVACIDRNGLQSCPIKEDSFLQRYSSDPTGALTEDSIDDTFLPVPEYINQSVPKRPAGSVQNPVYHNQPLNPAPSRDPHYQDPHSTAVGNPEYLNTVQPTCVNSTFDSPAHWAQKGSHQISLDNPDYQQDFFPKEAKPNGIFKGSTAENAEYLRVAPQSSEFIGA

SMILES	The inhibition ratio of the compound on Aurora B(%) (aurora kinase B; 40 μM)	The inhibition ratio of the compound on Aurora B(%) (aurora kinase B; 200 μM)	IC50 [1] [µg/mL]	inhibition at 10 µM [2] [%]	inhibition at 100 µM [2] [%]	inhibition at 10 µM [3] [%]	inhibition at 100 µM [3] [%]	inhibition at 10 µM [4] [%]	inhibition at 100 µM [4] [%]	IC50 [5] [µg/mL]	inhibition at 10 µM [6] [%]	inhibition at 100 µM [6] [%]	IC50 [7] [µg/mL]	IC50 [8] [µg/mL]	IC50 [9] [µg/mL]	inhibition at 10 µM [10] [%]	inhibition at 100 µM [10] [%]	LD50 (Acute Toxicity Study) [mg/kg]	inhibition at 10 µM [11] [%]	inhibition at 100 µM [11] [%]	further results
COCCOc1cc2c(cc1OCCOC)C1=Nc3cc(COS(C)(=O)=O)cc([N+](=O)[O-])c3CN1C=N2.Cl [Compound V-20, mesylate-{9-nitro-2,3-bis(2-methoxyethoxy)-8H-quinazolino[4,3-b]quinazoline-11-methanol}ester hydrochloride]	58.9	96.4	3.72	46.8	75.2	55	90.7	66.9	92.3	0.05	52.3	82.1	13.1	10.1	55.3	65.7	93.9	750	54.8	88.2	inhibition at 10 µM [12]: 57.9%; inhibition at 100 µM [12]: 95.6%; inhibition at 10 µM [13]: 40.7%; inhibition at 100 µM [13]: 97.4%; IC50 [14]: 22.7 µg/mL; The inhibition ratio of the compound on EGFR(%) (EGFR tyrosine kinase; 40 μM): 59.9%; The inhibition ratio of the compound on EGFR(%) (EGFR tyrosine kinase; 200 μM): 98.4%; IC50 [15]: 12.1 µg/mL; IC50 [16]: 71.4 µg/mL; inhibition at 10 µM [17]: 60.7%; inhibition at 100 µM [17]: 92.2%; IC50 [18]: 16.8 µg/mL
CS(=O)(=O)CCNCc1ccc(-c2ccc3c(c2)C2=Nc4ccc(OCc5cccc(F)c5)c(Cl)c4CN2C=N3)o1 [Compound V-33, N-((5-(9-chloro-10-(3-fluorobenzyloxy)-8H-quinazolino[4,3-b]quinazoline-2-yl)furan-2-yl)methyl)-2-(methylsulfonyl)ethylamine]	54.6	93.7	1.97 (≈ 3.32 µM)	16.5	78.2	48.1	86.1	61.6	96.3	15.4 (≈ 25.9 µM)	61	92.8	7.83 (≈ 13.2 µM)	62.6 (≈ 105 µM)	13.4 (≈ 22.6 µM)	62.7	99.5	2840	50.3	88	inhibition at 10 µM [12]: 41.6%; inhibition at 100 µM [12]: 90.8%; inhibition at 10 µM [13]: 40.5%; inhibition at 100 µM [13]: 86%; IC50 [14]: 40.7 µg/mL (≈ 68.6 µM); The inhibition ratio of the compound on EGFR(%) (EGFR tyrosine kinase; 40 μM): 64.3%; The inhibition ratio of the compound on EGFR(%) (EGFR tyrosine kinase; 200 μM): 97.9%; IC50 [15]: 0.05 µg/mL (≈ 0.0843 µM); IC50 [16]: 22.7 µg/mL (≈ 38.3 µM); inhibition at 10 µM [17]: 51.3%; inhibition at 100 µM [17]: 86.5%; IC50 [18]: 10.3 µg/mL (≈ 17.4 µM)
